Experimental data reported in patent US20110301079A1, “NEUROMEDIN U RECEPTOR AGONISTS AND USES THEREOF” (Instituto di Ricerche di Biologia Molecolare P. Angeletti …, priority 2007, published 2011).
Residues, ends and D or L forms follow the SMILES beside them. Groups on a side chain read outwards from the residue. No end group written: not given here. *: point of attachment. Succinimide(1-Et,3-yl) = CCN1C(=O)CC(*)C1=O

Columns and labels:
dog NMUR2 = molecular target: T1, dog NMUR2 (Canis lupus familiaris, UniProt A0A8I3MN59); assay: FLIPR calcium mobilization assay, dog NMUR2 cell line; assay type: cell-based; conditions: for EC50: dog NMUR2, FLIPR
T1 construct: expressed in transfected cells
Text: (§1) Human, mouse or rat cDNAs encoding NMUR1 or NMUR2 (as described in Howard et al. Nature 406: 70-74 (2000) were subcloned in pcDNA5 (Invitrogen) and transfected into FLP-In CHO cells and HEK-293 FLP-In cells purchased from Invitrogen (Carlsbad, Calif.) using lipofectamine (Invitrogen). The Flp-In system allows integration and expression of a particular gene of interest at a specific genomic location utilizing the Flp recombinase from yeast. The transfected cells were selected by growth in medium containing 200 μg/mL hygromycin (Invitrogen). Populations were frozen at early passage numbers, and these stocks were used for further studies. Stable clones that expressed the mRNAs were identified functionally by FLIPR as well as by RT-PCR. […] Two different rodent NMUR1 cell lines were thus generated: one with the codon as predicted from the genomic databases and another cell line with an engineered methionine (ATG) as the start codon. The dog NMU receptors were also cloned from intestine RNA (NMUR1) and brain (NMUR2) and stable cell lines were generated as used for the human and rodent cell lines. […] To ensure high levels of expression in a heterologous system, a dog NMUR1 cell line was generated that contains an ATG as the start codon. Additionally, stable cell lines expressing the human receptors were generated in HEK-293/aeq 17 cells which stably express the aequorin gene under the CMV promoter. The human NMUR2 cDNA was cloned into pcDNA3.1 and human NMUR1 was subcloned into pIRES-puro (Clontech, Mountain View, Calif.), after transfection cells were selected in media containing G418 and either hygromycin (NMUR2) or puromycin (NMUR1).
(§2) The NMU receptors signal primarily through Gαq/11 proteins; therefore calcium mobilization assays can be utilized for functional activity.
(§3) Stable cell lines expressing human and or rodent NMUR1 or human NMUR2 receptors are plated at a density of 12,000 cells per well overnight on poly-lysine coated 384-well black-walled plates. The following day, the media is removed from the plates and the cells were subsequently loaded with Fluo-3 (Molecular Probes), a calcium sensitive dye, diluted in FLIPR buffer (1× Hank's buffered saline containing 20 mM HEPES, 0.1% BSA, 2.5 mM probenecid (Sigma) and 1.6 mM TR40). All reagents are from Invitrogen unless otherwise noted. Peptide stocks are resuspended in DMSO at a stock concentration of 2 mM and diluted in FLIPR buffer on the day of the experiment to a 4 μM working stock solution.
(§4) After a 90 minute incubation at room-temperature, cell plates are loaded onto a FLIPR (Molecular Devices) to monitor cellular fluorescence (excitation=488 nm; emission=540 nm) before and after compound/peptide addition. Eight to twelve point dose responses are tested on NMUR-expressing cell lines using FLIPR with 1 μM peptide as the highest dose. The response after peptide addition is taken as the maximum fluorescence units minus the fluorescence immediately prior to stimulation for each well. EC50 values are calculated using GraphPad Prism (San Diego, Calif.) software.
(§5) Percent activity refers to the maximum response at 1 μM compared to the human NMU-25 response at the same concentration.

mouse NMUR1-ATG = molecular target: T2, mouse NMUR1-ATG (Mus musculus, UniProt O55040); assay: FLIPR calcium mobilization assay, mouse NMUR1-ATG cell line; assay type: cell-based; conditions: for EC50: FLIPR
T2 construct: expressed in transfected cells; host or cells: FLP-In CHO cells and HEK-293 FLP-In cells (pcDNA5)
T2 sequence (O55040 1-428): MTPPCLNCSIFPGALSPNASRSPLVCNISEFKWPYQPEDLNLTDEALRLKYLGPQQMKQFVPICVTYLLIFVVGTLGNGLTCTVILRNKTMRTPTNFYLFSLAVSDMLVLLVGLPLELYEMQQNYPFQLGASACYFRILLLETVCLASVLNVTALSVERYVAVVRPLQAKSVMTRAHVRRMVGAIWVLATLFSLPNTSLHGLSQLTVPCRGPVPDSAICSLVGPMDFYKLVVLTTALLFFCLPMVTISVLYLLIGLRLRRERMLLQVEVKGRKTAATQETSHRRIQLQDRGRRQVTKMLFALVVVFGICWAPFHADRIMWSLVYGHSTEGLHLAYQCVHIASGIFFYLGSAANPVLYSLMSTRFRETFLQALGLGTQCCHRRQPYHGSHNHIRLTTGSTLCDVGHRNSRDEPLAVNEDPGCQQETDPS
Text: as §1, §2, §3, §4, §5

human NMUR2 = molecular target: T3, human NMUR2 (Homo sapiens, UniProt Q9GZQ4); assay: FLIPR calcium mobilization assay, human NMUR2-expressing cell line; assay type: cell-based; conditions: for EC50: human NMUR2, FLIPR
T3 construct: expressed in transfected cells; host or cells: FLP-In CHO cells and HEK-293 FLP-In cells (pcDNA5)
Text: as §1, §2, §3, §4, §5

mouse NMUR2 = molecular target: T4, mouse NMUR2 (Mus musculus, UniProt Q8BZ39); assay: FLIPR calcium mobilization assay, mouse NMUR2 cell line; assay type: cell-based; conditions: for EC50: mouse NMUR2, FLIPR
T4 construct: expressed in transfected cells; host or cells: FLP-In CHO cells and HEK-293 FLP-In cells (pcDNA5)
Text: as §1, §2, §3, §4, §5

human NMUR1 = molecular target: T5, human NMUR1 (Homo sapiens, UniProt Q9HB89); assay: FLIPR calcium mobilization assay, human NMUR1-expressing cell line; assay type: cell-based; conditions: for EC50: human NMUR1, FLIPR
T5 construct: expressed in transfected cells; host or cells: FLP-In CHO cells and HEK-293 FLP-In cells (pcDNA5)
T5 sequence (Q9HB89 1-426): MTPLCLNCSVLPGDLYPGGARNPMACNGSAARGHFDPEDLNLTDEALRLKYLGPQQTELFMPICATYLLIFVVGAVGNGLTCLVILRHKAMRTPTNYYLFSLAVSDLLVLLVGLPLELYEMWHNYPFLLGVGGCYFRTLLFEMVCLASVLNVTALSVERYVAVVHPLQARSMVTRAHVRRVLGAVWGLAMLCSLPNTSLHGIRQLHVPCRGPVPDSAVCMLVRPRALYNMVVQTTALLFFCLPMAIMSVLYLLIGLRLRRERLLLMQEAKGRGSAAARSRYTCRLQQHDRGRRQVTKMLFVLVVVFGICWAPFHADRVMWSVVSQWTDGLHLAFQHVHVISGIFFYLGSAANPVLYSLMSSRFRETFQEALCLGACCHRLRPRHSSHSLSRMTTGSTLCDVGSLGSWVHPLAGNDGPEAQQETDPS
Text: as §1, §2, §3, §4, §5

dog NMUR1-ATG = assay: FLIPR calcium mobilization assay, dog NMUR1-ATG cell line; assay type: cell-based; conditions: for EC50: FLIPR
Text: as §1, §2, §3, §4, §5

[1] = tested on: wild-type, Nmur1 knockout, Nmur2 knockout and Nmur1/Nmur2 double knockout mice; assay: Acute feeding study in wild-type and Nmur knockout mice; assay type: in vivo
Experimental: (§6) Ad libitum fed male diet-induced obese mice obtained from Taconic Farms were weighed and dosed either i.p. or s.c. with NMS or NMU at about 30 minutes prior to the onset of the dark phase of the light cycle and provided with a pre-weighed aliquot of high fat diet (D12492: 60% kcal from fat: Research Diets, Inc.), which was then weighed two and 18 hours after the onset of the initial dark phase. Mice were weighed at the 18 hour (overnight) time point.
NMUR1 knockout (Nmur1−/−) mice were generated using standard homologous recombination techniques. Nmur1 mice were subsequently transferred to Taconic Farms where they were either maintained on a 75% C57BL/6×25% 129S6/SvEv mixed genetic background or backcrossed 6 generations to C57BL/6. NMUR2 knockout (Nmur2−/−) mice were licensed from Deltagen Inc., San Mateo, Calif. and subsequently transferred to Taconic Farms were they were either maintained on a 75% C57BL/6×25% 129/OlaHsd mixed genetic background or backcrossed for 7 generations to C57BL/6. NMUR1 and NMUR2 double knockout (Nmur1&2−/−) mice were generated by crossing N6 Nmur1−/− mice to N7 Nmur2−/− mice. Mice were individually housed in Tecniplast cages in a conventional SPF facility. Mice were initially maintained on a regular chow diet and then early in their life were switched to a high fat diet (D12492) with ad libitum access to water in a 12-h light/12-h dark cycle.
The anorectic effects of NMS1 were mediated by both the NMUR1 and NMUR2 receptors. […] Effects on food intake (FIG. 9A) and body weight (FIG. 9B) are shown.

mice = assay: Acute subcutaneous administration of NMS analogs, daily food intake and body weight; assay type: in vivo; conditions: for overnight food intake: FIG. 6A; for duration of significant reduction of food intake: daily food intake over a four-day period
Experimental: as §6
The efficacy of various PEGylated NMS analogs were evaluated using the aforementioned assays. The PEGylated NMS analogs evaluated were NMS1 and NMS4 (See Table 1).
NMS1, NMS3, and NMS4 were administered subcutaneously and daily food intake was measured over a four-day period.

[2] = tested on: male diet-induced obese mice; assay: Acute feeding study with NMU and NMS; assay type: in vivo; conditions: acute peripheral administration (i.p. or s.c.), FIG. 1A
Experimental: as §6

[3] = maximum response at 1 μM compared to the human NMU-25 response at the same concentration
[4] = acute subcutaneous administration
[5] = acute subcutaneous administration, FIG. 6B

T4 sequence (Q8BZ39 whole entry): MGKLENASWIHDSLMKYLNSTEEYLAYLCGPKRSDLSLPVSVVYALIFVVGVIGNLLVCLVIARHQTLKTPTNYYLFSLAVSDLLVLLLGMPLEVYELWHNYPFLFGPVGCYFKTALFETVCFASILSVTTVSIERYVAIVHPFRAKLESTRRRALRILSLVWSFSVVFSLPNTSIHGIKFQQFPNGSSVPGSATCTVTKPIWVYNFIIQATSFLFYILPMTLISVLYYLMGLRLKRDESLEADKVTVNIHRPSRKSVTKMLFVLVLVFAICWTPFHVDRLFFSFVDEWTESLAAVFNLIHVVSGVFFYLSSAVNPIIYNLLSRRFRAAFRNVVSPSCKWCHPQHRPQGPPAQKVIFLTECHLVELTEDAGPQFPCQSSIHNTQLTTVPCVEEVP
T1 sequence (A0A8I3MN59 1-378): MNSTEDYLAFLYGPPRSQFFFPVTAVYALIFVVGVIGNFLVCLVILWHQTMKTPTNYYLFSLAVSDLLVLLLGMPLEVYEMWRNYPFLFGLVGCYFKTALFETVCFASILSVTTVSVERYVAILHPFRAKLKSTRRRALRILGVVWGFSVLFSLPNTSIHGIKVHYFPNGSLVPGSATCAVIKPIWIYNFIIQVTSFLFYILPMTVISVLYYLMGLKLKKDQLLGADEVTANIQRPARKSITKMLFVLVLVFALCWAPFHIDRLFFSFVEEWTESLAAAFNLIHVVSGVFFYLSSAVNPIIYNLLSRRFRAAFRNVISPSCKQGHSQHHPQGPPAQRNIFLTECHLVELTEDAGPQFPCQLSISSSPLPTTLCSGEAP
T3 sequence (Q9GZQ4 whole entry): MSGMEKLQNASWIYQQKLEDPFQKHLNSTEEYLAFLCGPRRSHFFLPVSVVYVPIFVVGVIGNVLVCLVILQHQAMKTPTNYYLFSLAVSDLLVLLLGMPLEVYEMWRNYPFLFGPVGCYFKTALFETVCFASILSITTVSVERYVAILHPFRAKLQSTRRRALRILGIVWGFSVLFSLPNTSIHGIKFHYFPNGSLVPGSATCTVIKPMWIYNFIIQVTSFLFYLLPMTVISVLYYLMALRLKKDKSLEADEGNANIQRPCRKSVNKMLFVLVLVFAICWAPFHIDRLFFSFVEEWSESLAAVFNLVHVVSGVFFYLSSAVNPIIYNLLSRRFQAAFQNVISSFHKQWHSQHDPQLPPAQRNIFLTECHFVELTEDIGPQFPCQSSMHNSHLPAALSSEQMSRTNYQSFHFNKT

Molecule: CC[C@H](C)[C@H](NC(=O)[C@H](CSC1CC(=O)N(CC)C1=O)NC(C)=O)C(=O)N[C@@H](CC(C)C)C(=O)N[C@@H](CCC(N)=O)C(=O)N[C@@H](CCCNC(=N)N)C(=O)NCC(=O)N[C@@H](CO)C(=O)NCC(=O)N[C@H](C(=O)N[C@@H](C)C(=O)N[C@@H](C)C(=O)N[C@H](C(=O)N[C@@H](CC(=O)O)C(=O)N[C@@H](Cc1ccccc1)C(=O)N[C@H](C(=O)N[C@@H](CCCCN)C(=O)N[C@@H](CCCCN)C(=O)N[C@@H](CC(=O)O)C(=O)N[C@@H](Cc1c[nH]cn1)C(=O)N[C@H](C(=O)N[C@@H](C)C(=O)N[C@H](C(=O)N[C@@H](Cc1c[nH]c2ccccc12)C(=O)NCC(=O)N[C@@H](CCCNC(=N)N)C(=O)N1CCC[C@H]1C(=O)N[C@@H](Cc1ccccc1)C(=O)N[C@@H](Cc1ccccc1)C(=O)N[C@@H](CC(C)C)C(=O)N[C@@H](Cc1ccccc1)C(=O)N[C@@H](CCCNC(=N)N)C(=O)N1CCC[C@H]1C(=O)N[C@@H](CCCNC(=N)N)C(=O)N[C@@H](CC(N)=O)C(N)=O)[C@@H](C)O)[C@@H](C)O)[C@@H](C)O)C(C)C)[C@@H](C)O (stereo partly shown) [NMS3] (Ac-C(Succinimide(1-Et,3-yl))ILQRGSGTAAVDFTKKDHTATWGRPFFLFRPRN-NH2)
- EC50 (dog NMUR2): 2.2 nM
- % Activity (dog NMUR2; dog NMUR2, maximum response at 1 μM compared to the human NMU-25 response at the same concentration): 107%
- EC50 (mouse NMUR1-ATG): 8.7 nM
- % Activity (mouse NMUR1-ATG; [3]): 98%
- EC50 (human NMUR2): 18.1 nM
- % Activity (human NMUR2; human NMUR2, maximum response at 1 μM compared to the human NMU-25 response at the same concentration): 105%
- EC50 (mouse NMUR2): 11.9 nM
- % Activity (mouse NMUR2; mouse NMUR2, maximum response at 1 μM compared to the human NMU-25 response at the same concentration): 108%
- EC50 (human NMUR1): 11.4 nM
- % Activity (human NMUR1; human NMUR1, maximum response at 1 μM compared to the human NMU-25 response at the same concentration): 97%
- EC50 (dog NMUR1-ATG): 11.6 nM
- % Activity (dog NMUR1-ATG; [3]): 101%

Molecule: Ac-C2ILQRGSGTAAVDFTKKDHTATWGRPFFLFRPRN-CONH2 (Ac-C([maleimide-(PEG)2 40 kDa])ILQRGSGTAAVDFTKKDHTATWGRPFFLFRPRN-NH2) [NMS1, C2 = Cys(PEG)240 kDa, cysteine PEGylated via the side-chain thiol with a branched PEG]
- EC50 (dog NMUR2): 22.5 nM
- EC50 (mouse NMUR1-ATG): 589 nM
- effects on food intake and body weight ([1]; Nmur2 knockout animals, FIGS. 9A and 9B): only overnight effects
- food intake ([1]; acute administration, Nmur1/Nmur2 double knockout animals, FIG. 8A): no effect
- body weight ([1]; acute administration, Nmur1/Nmur2 double knockout animals, FIG. 8B): no effect
- anorectic efficacy ([1]; acute administration, wild-type animals): highly efficacious
- body weight (mice; NMS1 compared to NMU9, FIG. 7B): Significant reductions
- overnight food intake (mice; [4]): significantly reduced
- body weight (mice; [5]): Significant reductions
- duration of significant reduction of food intake (mice; [4]): three days post-dose
- food intake (mice; dose response, NMS1 versus NMU9, FIG. 7A): reduced food intake for at least three days post-dose in a dose-dependent manner
- EC50 (human NMUR2): 397 nM
- EC50 (mouse NMUR2): 29.1 nM
- EC50 (human NMUR1): 141 nM
- EC50 (dog NMUR1-ATG): 18.5 nM

Molecule: Ac-C4ILQRGSGTAAVDFTKKDHTATWGRPFFLFRPRN-CONH2 (Ac-C([maleimide-PEG 40 kDa])ILQRGSGTAAVDFTKKDHTATWGRPFFLFRPRN-NH2) [NMS4, C4 = Cys(PEG)40 kDa, cysteine PEGylated via the side-chain thiol with a linear PEG]
- EC50 (dog NMUR2): 3.1 nM
- EC50 (mouse NMUR1-ATG): 66.2 nM
- overnight food intake (mice; [4]): significantly reduced
- body weight (mice; [5]): Significant reductions
- duration of significant reduction of food intake (mice; [4]): two days post-dose
- EC50 (human NMUR2): 103 nM
- EC50 (mouse NMUR2): 19.4 nM
- EC50 (human NMUR1): 73.9 nM
- EC50 (dog NMUR1-ATG): 13.1 nM

Molecule: NMU: Neuromedin U; full length 25-mer (NMU-25) in humans (FRVDEEFQSPFASQSRGYFLFRPRN; ends and bridges not checked; UniProt P48645 142-166, looked up)
- food intake [2]: dose-dependently reduced
